The results in this text go back to patent US20230107941A1, “HEPATITIS B CAPSID ASSEMBLY MODULATORS” (Venatorx Pharmaceuticals, Inc., priority 2019, published 2023).

For orientation: EC50 means the concentration needed to bring the measured effect to its halfway point. By CC50 is commonly meant the concentration at which the toxic effect on the cells reaches its halfway point. A low value points to greater toxicity to the cells.

The test system of one data set is HBV. Nature of the data set: In vitro antiviral assay: anti-HBV replication in HepAD38 cells (extracellular HBV DNA by QPCR). The data set is classed as cell-based, hepatitis B virus (genotype D, serotype ayw). To be noted: Hepatitis B virus, HePAD38, 168 h, 7 days incubation, extracellular HBV DNA by QPCR, read-out: Anti-HBV EC50. The gist of the method: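 HepG2-derived HepAD38 cells (HBV genotype D, ayw, tet-repressible CMV) induced by tetracycline withdrawal, treated 7 days at 37 °C with compound (1 μM to 10 pM, 10-fold steps). Supernatant HBV DNA quantified by QPCR against standard curve, percent of DMSO control; EC50 by 4-parameter fit; entecavir positive control.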

The nature of data set [1]: In vitro cytotoxicity assay (MTT cell viability) in HepG2 cells. The data set is classed as cell-based, human. Conditions: human. The gist of the method: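 CC50 was derived by 4-parameter fit of viability relative to vehicle controls, measured as MTT formazan absorbance at 492 nm after 3–4 h of reagent and DMSO solubilization. Before that, HepG2 cells seeded overnight at 20,000/well were incubated 7 days at 37°C with compound from 30 μM down to 1.0 nM in half-log steps.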

For `Cc1cc(NC(=O)c2c(C)c(C(=O)C(=O)N[C@H]3CC[C@@H](S(C)(=O)=O)CC3)n(C)c2CC2CC2)ccc1F` [Example 124, 2-(cyclopropylmethyl)-N-(4-fluoro-3-methylphenyl)-1,4-dimethyl-5-(2-(((1s,4s)-4-(methylsulfonyl)cyclohexyl)amino)-2-oxoacetyl)-1H-pyrrole-3-carboxamide], in the data set on HBV, the EC50 is 50 to 499 nM. The compound further returned a CC50 at 7 days in data set [1] above 30000 nM.

Consider `Cc1cc(NC(=O)c2c(C)c(C(=O)C(=O)N[C@]3(C)CC[C@H](O)CC3)n(C)c2CC2CC2)ccc1F` [Example 125, 2-(cyclopropylmethyl)-N-(4-fluoro-3-methylphenyl)-5-(2-(((1s,4s)-4-hydroxy-1-methylcyclohexyl)amino)-2-oxoacetyl)-1,4-dimethyl-1H-pyrrole-3-carboxamide], for which the EC50 with HBV was below 50 nM. The CC50 at 7 days in data set [1] is above 30000 nM.

For `Cc1cc(NC(=O)c2c(C)c(C(=O)C(=O)N[C@H]3CC[C@@H](O)CC3)n(C)c2CC2CC2)ccc1F` [Example 126, 2-(cyclopropylmethyl)-N-(4-fluoro-3-methylphenyl)-5-(2-(((1s,4s)-4-hydroxycyclohexyl)amino)-2-oxoacetyl)-1,4-dimethyl-1H-pyrrole-3-carboxamide], the EC50 in the data set on HBV was below 50 nM. In addition, in data set [1], the CC50 at 7 days is above 30000 nM.

For `Cc1cc(NC(=O)c2c(C)c(C(=O)C(=O)NCC(C)(C)O)n(C)c2CC2CC2)ccc1F` [Example 127, 2-(cyclopropylmethyl)-N-(4-fluoro-3-methylphenyl)-5-(2-((2-hydroxy-2-methylpropyl)amino)-2-oxoacetyl)-1,4-dimethyl-1H-pyrrole-3-carboxamide], the EC50 in the data set with HBV is below 50 nM. For the same compound, the CC50 at 7 days in data set [1] lay in the range of 5000 to 30000 nM.

Regarding `Cc1cc(NC(=O)c2c(C)c(C(=O)C(=O)N[C@]3(C)C[C@H](O)C3)n(C)c2C2CC2)ccc1F` [Example 128, 2-cyclopropyl-N-(4-fluoro-3-methylphenyl)-5-(2-(((1s,3s)-3-hydroxy-1-methylcyclobutyl)amino)-2-oxoacetyl)-1,4-dimethyl-1H-pyrrole-3-carboxamide], the EC50 in the data set on HBV is below 50 nM. For the same compound, the CC50 at 7 days in data set [1] is above 30000 nM.

As for `Cc1cc(NC(=O)c2c(C)c(C(=O)C(=O)N[C@H]3CC[C@@H](S(C)(=O)=O)CC3)n(C)c2C2CC2)ccc1F` [Example 129, 2-cyclopropyl-N-(4-fluoro-3-methylphenyl)-1,4-dimethyl-5-(2-(((1s,4s)-4-(methylsulfonyl)cyclohexyl)amino)-2-oxoacetyl)-1H-pyrrole-3-carboxamide], the EC50 with HBV is below 50 nM. In data set [1], this compound returned a CC50 at 7 days above 30000 nM.

Turning to `Cc1cc(NC(=O)c2c(C)c(C(=O)C(=O)NCC(C)(C)O)n(C)c2C2CC2)ccc1F` [Example 130, 2-cyclopropyl-N-(4-fluoro-3-methylphenyl)-5-(2-((2-hydroxy-2-methylpropyl)amino)-2-oxoacetyl)-1,4-dimethyl-1H-pyrrole-3-carboxamide], the EC50 with HBV was below 50 nM. In addition, in data set [1], the CC50 at 7 days was 5000 to 30000 nM.

In the case of `Cc1cc(NC(=O)c2c(C)c(C(=O)C(=O)N[C@H]3CC[C@@H](S(C)(=O)=O)CC3)n(C)c2C2CCCC2)ccc1F` [Example 131, 2-cyclopentyl-N-(4-fluoro-3-methylphenyl)-1,4-dimethyl-5-(2-(((1s,4s)-4-(methylsulfonyl)cyclohexyl)amino)-2-oxoacetyl)-1H-pyrrole-3-carboxamide], the EC50 in the data set with HBV is above 1000 nM. In data set [1], this compound displayed a CC50 at 7 days of 5000 to 30000 nM.

For the compound `Cc1cc(NC(=O)c2c(C)c(C(=O)C(=O)N[C@]3(C)C[C@H](O)C3)n(C)c2C2CCCC2)ccc1F` [Example 132, 2-cyclopentyl-N-(4-fluoro-3-methylphenyl)-5-(2-(((1s,3s)-3-hydroxy-1-methylcyclobutyl)amino)-2-oxoacetyl)-1,4-dimethyl-1H-pyrrole-3-carboxamide], in the data set with HBV, the EC50 was 50 to 499 nM. The compound further returned a CC50 at 7 days in data set [1] above 30000 nM.

As to `Cc1cc(NC(=O)c2c(C)c(C(=O)C(=O)N[C@]3(C)CC[C@H](O)CC3)n(C)c2C2CCCC2)ccc1F` [Example 133, 2-cyclopentyl-N-(4-fluoro-3-methylphenyl)-5-(2-(((1s,4s)-4-hydroxy-1-methylcyclohexyl)amino)-2-oxoacetyl)-1,4-dimethyl-1H-pyrrole-3-carboxamide], in the data set on HBV, the EC50 was below 50 nM. Also, the CC50 at 7 days in data set [1] was above 30000 nM.

`Cc1cc(NC(=O)c2c(C)c(C(=O)C(=O)N[C@H]3CC[C@@H](O)CC3)n(C)c2C2CCCC2)ccc1F` [Example 134, 2-cyclopentyl-N-(4-fluoro-3-methylphenyl)-5-(2-(((1s,4s)-4-hydroxycyclohexyl)amino)-2-oxoacetyl)-1,4-dimethyl-1H-pyrrole-3-carboxamide]: the concentration for a half-maximal effect (EC50) in the data set on HBV fell in the range of 50 to 499 nM. This compound had a CC50 at 7 days in data set [1] above 30000 nM.

Regarding `Cc1cc(NC(=O)c2c(C)c(C(=O)C(=O)NCC(C)(C)O)n(C)c2C2CCCC2)ccc1F` [Example 135, 2-cyclopentyl-N-(4-fluoro-3-methylphenyl)-5-(2-((2-hydroxy-2-methylpropyl)amino)-2-oxoacetyl)-1,4-dimethyl-1H-pyrrole-3-carboxamide], in the data set on HBV, the EC50 lay in the range of 50 to 499 nM. In addition, the CC50 at 7 days in data set [1] is above 30000 nM.

`Cc1c(C(=O)Nc2ccc(F)c(C3CC3)c2)c(C)n(C)c1C(=O)C(=O)N[C@]1(C)CC[C@@H](O)CC1` [Example 136, N-(3-cyclopropyl-4-fluorophenyl)-5-(2-(((1r,4r)-4-hydroxy-1-methylcyclohexyl)amino)-2-oxoacetyl)-1,2,4-trimethyl-1H-pyrrole-3-carboxamide]: in the data set on HBV, the EC50 is below 50 nM. The CC50 at 7 days in data set [1] is above 30000 nM.

As to `Cc1c(C(=O)Nc2ccc(F)cc2)c(C)n(C)c1C(=O)C(=O)N[C@]1(C)CC[C@@H](O)CC1` [Example 137, N-(4-fluorophenyl)-5-(2-(((1r,4r)-4-hydroxy-1-methylcyclohexyl)amino)-2-oxoacetyl)-1,2,4-trimethyl-1H-pyrrole-3-carboxamide], the EC50 in the data set on HBV is below 50 nM. Further, in data set [1], the CC50 at 7 days is above 30000 nM.

As for `Cc1c(C(=O)Nc2ccc(F)c(C3CC3)c2)c(C)n(C)c1C(=O)C(=O)NC(C)(C)C` [Example 138, 5-(2-(tert-butylamino)-2-oxoacetyl)-N-(3-cyclopropyl-4-fluorophenyl)-1,2,4-trimethyl-1H-pyrrole-3-carboxamide], the EC50 with HBV is below 50 nM. In data set [1], the CC50 at 7 days was above 30000 nM.

With `Cc1c(C(=O)Nc2ccc(F)c(-c3nc[nH]n3)c2)c(C)n(C)c1C(=O)C(=O)NC(C)(C)C` [Example 139, 5-(2-(tert-butylamino)-2-oxoacetyl)-N-(4-fluoro-3-(1H-1,2,4-triazol-3-yl)phenyl)-1,2,4-trimethyl-1H-pyrrole-3-carboxamide], the EC50 with HBV is above 1000 nM. This compound also registered a CC50 at 7 days in data set [1] above 30000 nM.

Take `Cc1c(C(=O)Nc2ccc(F)c(C#N)c2)c(C)n(C)c1C(=O)C(=O)Nc1ccc(B(O)O)cc1` [Example 140, (4-(2-(4-((3-cyano-4-fluorophenyl)carbamoyl)-1,3,5-trimethyl-1H-pyrrol-2-yl)-2-oxoacetamido)phenyl)boronic acid]: the EC50 with HBV was below 50 nM. In data set [1], this compound came in with a CC50 at 7 days above 30000 nM.

In the case of `Cc1c(C(=O)Nc2ccc(F)c(C#N)c2)c(C)n(C)c1C(=O)C(=O)Nc1cccc(B(O)O)c1` [Example 141, (3-(2-(4-((3-cyano-4-fluorophenyl)carbamoyl)-1,3,5-trimethyl-1H-pyrrol-2-yl)-2-oxoacetamido)phenyl)boronic acid], in the data set on HBV, the EC50 lay within 50 to 499 nM. Moreover, the CC50 at 7 days in data set [1] was above 30000 nM.

`Cc1cc(NC(=O)c2c(C)c(C(=O)C(=O)N[C@H]3CC[C@@H](OCC(=O)O)CC3)n(C)c2C)ccc1F` [Example 144, 2-(((1s,4s)-4-(2-(4-((4-fluoro-3-methylphenyl)carbamoyl)-1,3,5-trimethyl-1H-pyrrol-2-yl)-2-oxoacetamido)cyclohexyl)oxy) acetic acid]: the EC50 in the data set with HBV lay within 50 to 499 nM. The CC50 at 7 days in data set [1] was above 30000 nM.

On to `Cc1cc(NC(=O)c2c(C)c(C(=O)C(=O)NC3(CC(=O)O)CCNCC3)n(C)c2C)ccc1F` [Example 145, 2-(4-(2-(4-((4-fluoro-3-methylphenyl)carbamoyl)-1,3,5-trimethyl-1H-pyrrol-2-yl)-2-oxoacetamido)piperidin-4-yl)acetic acid], for which, in the data set with HBV, the EC50 was in the range of 50 to 499 nM. In data set [1], this compound showed a CC50 at 7 days above 30000 nM.

Take `Cc1cc(NC(=O)c2c(C)c(C(=O)C(=O)NC3(CC(=O)O)CCCNC3)n(C)c2C)ccc1F` (stereo not shown) [Example 146, 2-(3-(2-(4-((4-fluoro-3-methylphenyl)carbamoyl)-1,3,5-trimethyl-1H-pyrrol-2-yl)-2-oxoacetamido)piperidin-3-yl)acetic acid]: in the data set with HBV, the EC50 was above 1000 nM. Also, the CC50 at 7 days in data set [1] is above 30000 nM.

For `CC(=O)N1CC[C@@H](NC(=O)C(=O)c2c(C)c(C(=O)Nc3ccc(F)c(C)c3)c(C)n2C)[C@H](F)C1` [Example 147, 5-(2-(((3R,4R)-1-acetyl-3-fluoropiperidin-4-yl)amino)-2-oxoacetyl)-N-(4-fluoro-3-methylphenyl)-1,2,4-trimethyl-1H-pyrrole-3-carboxamide], the EC50 with HBV was below 50 nM. Further, the CC50 at 7 days in data set [1] was above 30000 nM.

With `CC(=O)N1CC[C@@H](NC(=O)C(=O)c2c(C)c(C(=O)Nc3ccc(F)c(C)c3)c(C)n2C)C(F)(F)C1` [Example 148, (R)-5-(2-((1-acetyl-3,3-difluoropiperidin-4-yl)amino)-2-oxoacetyl)-N-(4-fluoro-3-methylphenyl)-1,2,4-trimethyl-1H-pyrrole-3-carboxamide], the EC50 in the data set on HBV is below 50 nM. This compound displayed a CC50 at 7 days in data set [1] above 30000 nM.
